Common to all, as to type: cell-based
The target in one assay is T1, RXFP4 R208A (Homo sapiens, UniProt Q8TDU9, R208A).
T1 construct: RXFP4(1-374)-; expressed in transfected cells; host or cells: HEK293T, transient (pCMV6)
Description: cAMP accumulation, RXFP4 R208A. The following applies: HEK293T. The text has this:
The full-length human RXFP4 (NCBI Reference Sequence: NM_181885.3) was cloned into a modified pFastBac vector (Invitrogen) with HA signal peptide to enhance receptor expression, followed by a 10× histidine tag and BRIL insertion at the N terminus. LgBiT subunit (Promega) was fused at the C terminus of RXFP4 connected by a 15-amino acid polypeptide linker. […] The engineered human Gαi2, Gβ1, bovine Gγ2, and scFv16 were cloned into the pFastBac vector (Invitrogen), respectively. For cAMP accumulation assay, human RXFP4 and RXFP3 (NCBI Reference Sequence: NM_016568.3) were cloned into pCMV6 constructs (OriGene Technologies). The mutant receptors were modified by site-directed mutagenesis in the setting of the WT constructs, with the primers designed by QuikChange Primer Design [QuickChange Primer Design (http://agilent.com.cn)] and carried out using Phanta Max Master (Vazyme). N-terminal Flag tag was added to both WT and mutant receptors for surface expression measurement. […]
(§1) CHO-K1 (ATCC, Cat#CCL-61) cells stably expressing human RXFP4 (hRXFP4-CHO) or RXFP3 (hRXFP3-CHO) were maintained in DMEM/F12 (Gibco) supplemented with 10% (v/v) fetal bovine serum (FBS) and 2 mM L-glutamine. […] Following 24 h culturing, the transfected cells were ready for detection.
(§2) Ligands were verified for their bioactivity in the beginning in hRXFP4-CHO, which were ready for use after 24 h culturing. […] The time-resolved fluorescence resonance energy transfer (TR-FRET) signals were detected by an EnVision multilabel plate reader (PerkinElmer) with the emission window ratio of 665 nm over 620 nm under 320 nm excitation. […]
Inhibition of forskolin-induced cAMP accumulation was performed in HEK293T cells transiently transfected with WT and mutant receptors. All the mutant constructs were modified by single-point mutation in the setting of the WT receptor. cAMP accumulation data were analyzed using a three-parameter logistic equation to determine pEC50 and Emax values. Emax values for mutants are defined as the window between the maximal response and vehicle control (no ligand) and expressed as a percentage of the WT. […]
On the technique in general: cAMP levels reflect the balance of adenylyl cyclase and phosphodiesterase activity.

In a further assay the test system is human RXFP3. Description: inhibition of forskolin-induced cAMP accumulation, WT RXFP3 (hRXFP3-CHO). The note with it: binding and cAMP assays, Fig. 3e, Supplementary Fig. 2e–g. As to the method:
CHO-K1 (ATCC, Cat#CCL-61) cells stably expressing human RXFP4 (hRXFP4-CHO) or RXFP3 (hRXFP3-CHO) were maintained in DMEM/F12 (Gibco) supplemented with 10% (v/v) fetal bovine serum (FBS) and 2 mM L-glutamine. Human embryonic kidney 293 T cells containing SV40 large T-antigen (HEK293T, ATCC, Cat#64127316) were maintained in DMEM (Gibco) supplemented with 10% (v/v) FBS, 1 mM sodium pyruvate (Gibco), 100 units/mL penicillin and 100 μg/mL streptomycin at 37 °C in 5% CO2. For cAMP assays in mutants, HEK293T cells were seeded onto 6-well cell culture plates at a density of 7 × 10^5 cells per well. After overnight incubation, cells were transfected with WT or mutant receptors using Lipofectamine 3000 transfection reagent (Invitrogen). Following 24 h culturing, the transfected cells were ready for detection.
as §2
All functional study data were analyzed using GraphPad Prism 8.3 (GraphPad Software) and presented as means ± S.E.M. from at least three independent experiments. Dose-response curves were evaluated with a three-parameter logistic equation. […]

The next assay addresses T2, RXFP4 Q205A (Homo sapiens, UniProt Q8TDU9, Q205A).
T2 construct: RXFP4(1-374)-; expressed in transfected cells; host or cells: HEK293T, transient (pCMV6)
Description: cAMP accumulation, RXFP4 Q205A.
Excerpt: (§3) The full-length human RXFP4 (NCBI Reference Sequence: NM_181885.3) was cloned into a modified pFastBac vector (Invitrogen) with HA signal peptide to enhance receptor expression, followed by a 10× histidine tag and BRIL insertion at the N terminus. LgBiT subunit (Promega) was fused at the C terminus of RXFP4 connected by a 15-amino acid polypeptide linker. […] The engineered human Gαi2, Gβ1, bovine Gγ2, and scFv16 were cloned into the pFastBac vector (Invitrogen), respectively. For cAMP accumulation assay, human RXFP4 and RXFP3 (NCBI Reference Sequence: NM_016568.3) were cloned into pCMV6 constructs (OriGene Technologies). […]
as §1, §2

The target in a further assay is T3, RXFP4 V122A (Homo sapiens, UniProt Q8TDU9, V122A).
T3 construct: RXFP4(1-374)-; expressed in transfected cells; host or cells: HEK293T, transient (pCMV6)
T3 sequence (Q8TDU9 whole entry V122A): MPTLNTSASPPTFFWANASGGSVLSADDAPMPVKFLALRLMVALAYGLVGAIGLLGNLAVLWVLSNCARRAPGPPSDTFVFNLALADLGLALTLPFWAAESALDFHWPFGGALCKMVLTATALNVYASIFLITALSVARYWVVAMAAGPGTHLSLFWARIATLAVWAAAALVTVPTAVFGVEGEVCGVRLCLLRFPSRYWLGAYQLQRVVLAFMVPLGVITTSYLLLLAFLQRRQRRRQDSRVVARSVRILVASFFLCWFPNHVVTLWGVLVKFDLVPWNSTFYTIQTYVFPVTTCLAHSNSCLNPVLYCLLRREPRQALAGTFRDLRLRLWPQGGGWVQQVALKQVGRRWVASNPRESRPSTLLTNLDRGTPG
Description: cAMP accumulation, RXFP4 V122A. The note with it: HEK293T, mean ± S.E.M.
Excerpt: as §3, §1, §2

The target in a further assay is T4, RXFP4 D104A (Homo sapiens, UniProt Q8TDU9, D104A).
T4 construct: RXFP4(1-374)-; expressed in transfected cells; host or cells: HEK293T, transient (pCMV6)
T4 sequence (Q8TDU9 whole entry D104A): as the sequence (Q8TDU9 whole entry V122A) above, with D104A, A122V counted along it
Briefly: cAMP accumulation, RXFP4 D104A.
Excerpt: as §3, §1, §2

Each structure is given as a SMILES string. Entries after “also recorded” stand apart in the source; their conditions may differ.

T1 sequence (Q8TDU9 whole entry R208A): as the sequence (Q8TDU9 whole entry V122A) above, with A122V, R208A counted along it
T2 sequence (Q8TDU9 whole entry Q205A): as the sequence (Q8TDU9 whole entry V122A) above, with A122V, Q205A counted along it

For `CCOc1cc2c(cc1OC)CCN(C(=O)N1CCOCC1)[C@H]2CCc1c[nH]c2ccc(OC)cc12` [DC591053, (S)-(7-ethoxy-6-methoxy-1-(2-(5-methoxy-1H-indol-3-yl)ethyl)−3,4-dihydroisoquinolin-2(1H)-yl)(morpholino)methanone], the “decrease of potency vs WT” value at RXFP4 R208A stood at 7.6 fold. Besides, the EC50 – broadly, the concentration giving half of the maximal effect – on RXFP4 R208A (1.5 μM forskolin, mean ± S.E.M., n = 3, N.A., not active) was 263 nM. Further, on RXFP4 R208A (mean ± S.E.M.), the Emax amounted to 52.09 ± 4.26 % WT. In the assay on human RXFP3, the “cross-reactivity with RXFP3” value was “neither reacted with related RXFP3; also recorded: without observable cross-reactivity”.
`CC[C@H](C)[C@@H]1NC(=O)[C@H](Cc2ccc(O)cc2)NC(=O)[C@H]([C@@H](C)CC)NC(=O)[C@H](C(C)C)NC(=O)[C@H]([C@@H](C)O)NC(=O)[C@H](CCCNC(=N)N)NC(=O)[C@H]([C@@H](C)CC)NC(=O)[C@H](Cc2ccc(O)cc2)NC(=O)[C@H](CCC(=O)O)NC(=O)[C@H](CC(C)C)NC(=O)CNC(=O)[C@@H](NC(=O)[C@H](CC(C)C)NC(=O)[C@H](CCCNC(=N)N)NC(=O)[C@@H](NC(=O)[C@H](CO)NC(=O)[C@H](CCC(=O)O)NC(=O)[C@@H](N)CCCCN)C(C)C)CSSC[C@@H]2NC(=O)[C@@H](NC(=O)[C@H](CC(C)C)NC(=O)[C@@H](NC(=O)[C@H](CCC(N)=O)NC(=O)[C@H](CC(C)C)NC(=O)[C@H](CC(=O)O)NC(=O)[C@@H](N)CCC(N)=O)[C@@H](C)O)CSSC[C@H](NC(=O)CNC(=O)[C@H](CC(=O)O)NC(=O)[C@H]([C@@H](C)O)NC2=O)C(=O)N[C@@H](CO)C(=O)N[C@@H](CCSC)C(=O)N[C@@H]([C@@H](C)O)C(=O)N[C@@H](CC(=O)O)C(=O)N[C@@H](CC(C)C)C(=O)N[C@@H](CO)C(=O)N[C@@H](C)C(=O)N[C@@H](CC(C)C)C(=O)N[C@H](C(=O)O)CSSC[C@@H](C(=O)N[C@@H](C)C(=O)N[C@@H](CO)C(=O)N[C@@H](CO)C(=O)N[C@@H](CCCNC(=N)N)C(=O)N[C@@H](Cc2c[nH]c3ccccc23)C(=O)O)NC1=O` [INSL5, insulin-like peptide 5]: the EC50 on RXFP4 Q205A was 3.98 nM; on RXFP4 V122A (1.5 μM forskolin, n = 3), 3.63 nM; on RXFP4 D104A, 1.62 nM. For the same compound, the Emax at RXFP4 Q205A (HEK293T, mean ± S.E.M.) stood at 50.94 ± 6.54 % WT; on RXFP4 V122A, 33.20 ± 3.27 % WT; on RXFP4 D104A (HEK293T, mean ± S.E.M.), 59.09 ± 6.41 % WT.
